Data from patent publication US10258659B2, “Water soluble defructosylated pea extract, and use thereof as a prebiotic agent” (OLYGOSE, priority 2009, dated 2019).
Marks after values point to notes of the source that are not given here.

Settings: human, in vivo

Substance: β-galacto-oligosaccharides [β-GOS]
- Abdominal noises F (frequency of the symptoms): 1.8 ^b
- Abdominal noises I (intensity of the symptoms): 1.6 ^ab
- Abdominal pain F (frequency of the symptoms): 1.6 ^ab
- Abdominal pain I (intensity of the symptoms): 1.5 ^ab
- Bloating F (frequency of the symptoms): 1.6 ^ab
- Bloating I (intensity of the symptoms): 1.7 ^b
- Cumulative grade: 21.3 ^b
- Flatulence F (frequency of the symptoms): 2.9 ^b
- Flatulence I (intensity of the symptoms): 2.5 ^b
- Nausea F (frequency of the symptoms): 1.2 ^a
- Nausea I (intensity of the symptoms): 1.1 ^a
- Need to defecate F (frequency of the symptoms): 2.1 ^a
- Need to defecate I (intensity of the symptoms): 1.7 ^a
